Where a name gives a salt, the structure may show the parent alone. Read-outs that look alike come from different tables or passages of the source.

We go through nine compounds from publication PMC3943356 (Bioorganic & medicinal chemistry letters, 2013).

Assay [1] has as its system VGLUT. The assay is described as follows: Inhibition of 3H-L-Glu uptake into synaptic vesicles prepared from rat brain. As to conditions: for reduction (block) of L-Glu uptake: compound at 250 µM, 3H-L-Glu 250 µM.
Assay [2] deals with VGLUT.
Assay [3] has as its system NMDA receptor. As to conditions: cited from earlier work.
Assay [4] concerns AMPA receptors. As to conditions: cited from earlier work.
Assay [5] relates to KA receptors. The following applies: cited from earlier work.
Assay [6] deals with VGLUT. The following applies: read-out: Ki at VGLUT; cited from earlier work.

`C[C@]12CC[C@@H]3c4ccc(OC(=O)CCC(=O)O)cc4CC[C@H]3[C@@H]1CCC2=O` [Estrone hemisuccinate]: the “reduction (block) of L-Glu uptake” value in assay [1] was “inactive”. A word on the Ki: it is the dissociation constant of the complex between target and ligand, obtained from inhibition or displacement. For `O=C(O)c1cc(C(=O)O)c2ccc3cc4ccccc4cc3c2n1` [7,8-NQDC, Naphtho[2,3-h]quinoline-2,4-dicarboxylic acid], the “reduction (block) of L-Glu uptake” value in assay [1] is “similarly effective”. The Ki in assay [2] is roughly 60 µM. With `CC(=O)[C@H]1CC[C@H]2[C@@H]3CC=C4C[C@@H](O)CC[C@]4(C)[C@H]3CC[C@]12C` [Pregnenolone], the “reduction (block) of L-Glu uptake” value in assay [1] is recorded as “did not block L-Glu uptake to any appreciable level”. Take Pregnenolone sulfate: the “effect on NMDA receptor” value in assay [3] is given as “potentiate”. In assay [1], the “reduction (block) of L-Glu uptake” value turned out to be 70%. With `CC(=O)[C@H]1CC[C@H]2[C@@H]3CC[C@@H]4C[C@@H](OS(=O)(=O)O)CC[C@]4(C)[C@H]3CC[C@]12C` [Pregnanolone sulfate], the “effect on NMDA receptor” value in assay [3] is listed as “inhibits”. In assay [1], the “activity relative to the endogenous substrate L-Glu” value is “approximately 100 fold” and the “reduction (block) of L-Glu uptake” value is given as 85%. Also, the mechanism of inhibition result in assay [1] (Lineweaver-Burk plot, increase in Km,app, no change in Vmax) was “competitive inhibition”. In addition, in assay [4], the “effect on AMPA receptors” value is recorded as “inhibits”. Also, the “effect on KA receptors” value in assay [5] was “inhibits”. For the compound `CC(C)CC1C(=O)N2CCCC2C2(O)OC(NC(=O)C3C=C4c5cccc6[nH]c(Br)c(c56)CC4N(C)C3)(C(C)C)C(=O)N12` (centres unmarked) [bromocryptine], in assay [6], the inhibition constant Ki is roughly 22 µM. For orientation: Km means the substrate concentration at which the rate is half of its maximum. In the case of `N[C@@H](CCC(=O)O)C(=O)O` [L-Glu, Glutamate], the Km in assay [1] (read-out: Km of L-Glu uptake, Lineweaver-Burk plot, Fig. 3) worked out at 2500 µM.

Turning to `O=C(O)c1cc(C(=O)O)c2c(ccc3cc4ccccc4cc32)n1` [5,6-NQDC, Naphtho[2,3-f]quinoline-1,3-dicarboxylic acid], the “reduction (block) of L-Glu uptake” value in assay [1] was “over 80%”. For the same compound, the inhibition constant Ki in assay [2] is roughly 60 µM.

For `C[C@]12CC[C@@H]3c4ccc(O)cc4CC[C@H]3[C@@H]1CCC2=O` [Estrone], in assay [1], the “reduction (block) of L-Glu uptake” value is “did not block L-Glu uptake to any appreciable level”.
